Values quoted from earlier work in article PMC7536072, “Molecular and functional characterization of somatostatin-type signalling in a deuterostome invertebrate” (Open Biology, 2020).
Bridges are numbered along the chain shown (N, C = ends). Where no end group is shown, it is not given here.

Tests used:
[1] = system: growth hormone release; settings: ref [1]; cited from earlier work
Excerpt: (§1) Subsequently, an N-terminally extended isoform (SS28) was identified, with both SS14 and SS28 being derived from the same precursor protein [5]. Five G-protein-coupled receptors, SSTR1, SSTR2, SSTR3, SSTR4 and SSTR5, mediate effect ...

[2] = system: insulin release; settings: ref [2]; cited from earlier work
Excerpt: as §1

[3] = system: mammals; settings: intracerebroventricular, cited from earlier work
Excerpt: as §1

## SS: tetradecapeptide with a disulfide bridge linking cysteine residues at positions 3 and 14 (SS14) (AGCKNFFWKTFTSC; disulfide 3-14; UniProt P61278 103-116, looked up)
[1]
  effect on growth hormone release: inhibits growth hormone release
[2]
  effect on insulin release: inhibits insulin release
[3]; ref [12],[13]
  effect on food intake and drinking: stimulation of food intake and drinking
[3]; ref [14]
  anxiolytic effect: anxiolysis
